“Also recorded” adds a separate entry of the source.
Assays:
[1] = tested on: ischemic stroke patients; settings: human, in vivo, 5 days
Experimental: NMDA receptor antagonists can cause adverse events in ischemic stroke patients.
The ENIS trial was to examine efficacy as well as safety of the intravenous infusions of nelonemdazK for acute ischemic stroke patients (35-80 years old) receiving at least one kind of thrombolytic drugs including rtPA or urokinase within 8 hours of onset. A total of 238 patients were enrolled for the ENIS trial and allocated randomly in a double-blinded manner to one of 4 groups for the intravenous infusions of test drugs as follows: (Group A) placebo [0.9% normal saline], (Group B) 2,750 mg nelonemdazK for 5 days [500 mg for 1st infusion followed by 2nd-10th infusions approximately at 12 h intervals (250 mg for each infusion)], (Group C) 5,250 mg nelonemdazK for 5 days [750 mg for 1st infusion followed by 2nd-10th infusions approximately at 12 h intervals (500 mg for each)], and (Group D) 6,000 mg nelonemdazK for 5 days [1500 mg for 1st infusion followed by 2nd-10th infusions approximately at 12 h intervals (500 mg for each)]. Acute ischemic stroke patients due to occlusion in internal carotid artery system within 8 hours of onset were enrolled. Patients with The National Institutes of Health Stroke Scale (NIHSS; range 0-42, with higher scores indicating greater stroke severity) scores of 4 to 22 and limb weakness including motor arm or motor leg score≥2 of NIHSS were included. All the patients received at least one kind of thrombolytic therapy before treatment of any study drug.

[2] = tested on: adult rats treated with rt-PA after 3-h tMCAO; experiment: rt-PA-induced hemorrhagic transformation following 3-h occlusion of middle cerebral artery (tMCAO); format: in vivo, rat; settings: for hemorrhage / hemorrhagic transformation in the brain: 10 mg/kg rt-PA IV plus 30 mg/kg IV after reperfusion, 3-h tMCAO, 24 h, potassium salt
Experimental: Male Sprague-Dawley rats (300-350 g; 15-16 animals/group) were anesthetized with chloral hydrate (400 mg/kg, IP) and the anesthesia was sustained for about 1.5 h during the procedure. The rectal temperature was recorded and maintained at 37.0-37.5° C. using a rectal probe and homoeothermic blanket controlled by a temperature control unit (Letica Scientific Instruments). Occlusion of the MCA was done according to the previous report (Gwag et al., 2007). Briefly, the right common carotid artery, external carotid artery (ECA), and internal carotid artery (ICA) were exposed. A length of 4-0 monofilament nylon suture (17 mm, pre-coated with silicone) with its tip rounded by heating near a flame was advanced from the lumen of the ICA until it blocked the origin of the middle cerebral artery (MCA). The suture remained for 3 h and was withdrawn for reperfusion. After 24 h, the brain was removed immediately, placed in the fixative for 15 min, and used for further analysis.
Animals received transient focal cerebral ischemia for 3 h as described above with intravenous administration of 10 mg/kg rt-PA or 10 mg/kg rt-PA plus 30 mg/kg nelonemdazK after reperfusion. rt-PA (10 mg/kg) dissolved in water for injection ([…]) was injected through femoral vein over 20 min from 5 min after reperfusion. NelonemdazK (30 mg/kg) dissolved in saline (6 mg/mL; 5 mL/kg) was injected through femoral vein over 5 min immediately after the end of rt-PA infusion.

[3] = tested on: mice treated with rt-PA after embolic stroke; experiment: Embolic stroke in mice treated with rt-PA: hemorrhage and brain injury at 24 h; format: in vivo; settings: 10 mg/kg rt-PA plus nelonemdazK IV at 4.5 hours after embolic stroke, analyzed at 24 hours
Experimental: Embolic stroke was induced by injection of blood clot into the right internal carotid artery of mice. Animals received intravenous administration of saline, 10 mg/kg rt-PA, or 10 mg/kg rt-PA plus nelonemdazK through femoral vein at 4.5 hours after embolic stroke. rt-PA was dissolved in water and injected over 20 min. NelonemdazK was dissolved in saline and injected over 5 min immediately after rt-PA infusion. Hemorrhage and brain injury were analyzed 24 hours after embolic stroke.

[4] = tested on: acute ischemic stroke patients; experiment: SONIC phase II trial: acute ischemic stroke patients receiving endovascular thrombectomy with or without rt-PA; format: in vivo, human; settings: for ratio of mRS 0-2 or 0: vs placebo, potassium salt
Experimental: The SONIC trial was to examine efficacy and safety of the intravenous infusions of nelonemdazK for acute ischemic stroke patients (adults≥19) receiving endovascular thrombectomy with or without rt-PA within 8 hours of onset as described (Hong et al., 2018). A total of 209 patients were enrolled for the SONIC trial and allocated randomly in a double-blinded manner to one of 3 groups for the intravenous infusions of test drugs as follows: (Group A) placebo [0.9% normal saline], (Group B) 2,750 mg nelonemdazK for 5 days [500 mg for 1st infusion followed by 2nd-10th infusions approximately at 12 h intervals (250 mg for each infusion)], and (Group C) 5,250 mg nelonemdazK for 5 days [750 mg for 1st infusion followed by 2nd-10th infusions approximately at 12 h intervals (500 mg for each)].
Acute ischemic stroke patients due to occlusion in carotid internal carotid artery system within 8 hours of onset were enrolled. Enrolled patients presented the National Institutes of Health Stroke Scale (NIHSS: range 0-42, with higher scores indicating greater stroke severity) scores and Alberta stroke program early CT score (ASPECTS: a 10-point quantitative topographic CT scan score used in patients with middle cerebral artery (MCA) stroke, with lower scores indicating larger cerebral infarction)≥6.
For statistical analysis, Cochran-Mantel-Haenszel (CMH) chi-square test was conducted to compare distribution and ratio of mRS scores for each group at 1, 4, and 12 weeks after drug treatment. Ordinal logistic regression was applied with multivariate analysis controlling confounding variables that may cause difference between the groups in participating institutions and baseline scores. In addition, generalized estimating equation (GEE) analysis was conducted to compare the changes between groups in mRS scores measured at 1, 4, and 12 weeks after drug treatment. For the analysis of the Barthel Index score and adverse events, chi-square test or Fisher exact test was conducted to compare difference between groups at 1, 4, and 12 weeks after drug treatment.
Acute ischemic stroke patients who presented the baseline NIHSS score≥8 and the mRS distribution of 2-5 were enrolled for the SONIC trial. Out of a total of 209 patients, 152 patients successfully completed procedures including drug treatment for 5 days and scheduled analysis over 12 weeks after drug treatment according to the clinical protocol approved by Korea Ministry of Food and Drug Safety. […] The shift analysis implies that administration of nelonemdazK reduces disability in acute stroke patients treated with endovascular thrombectomy.

SMILES: O=C([O-])c1cc(NCc2c(F)c(F)c(C(F)(F)F)c(F)c2F)ccc1O.[K+] [nelonemdazK, 2-Hydroxy-5-(2,3,5,6-tetrafluoro-4-trifluoromethylbenzylamino)benzoic acid potassium salt]
- % of subjects showing abnormal behavior: Agitation [1]: 2%
- % of subjects showing abnormal behavior: Confusion [1]: 0 (0%)
- % of subjects showing abnormal behavior: Delirium [1]: 0 (0%)
- % of subjects showing abnormal behavior: Hallucination [1]: 0 (0%)
- % of subjects showing abnormal behavior: Paranoia [1]: 0 (0%)
- % of subjects showing abnormal behavior: Stupor [1]: 1 (1%)
- Number of subjects showing abnormal behavior: Agitation [1]: 4
- Number of subjects showing abnormal behavior: Confusion [1]: 0 (0%)
- Number of subjects showing abnormal behavior: Delirium [1]: 0 (0%)
- Number of subjects showing abnormal behavior: Hallucination [1]: 0 (0%)
- Number of subjects showing abnormal behavior: Paranoia [1]: 0 (0%)
- Number of subjects showing abnormal behavior: Stupor [1]: 1 (1%)
- rate of hemorrhagic transformation ([2]; 10 mg/kg rt-PA IV plus 30 mg/kg IV after 3-h tMCAO, p<0.05 Fisher's exact test): significantly reduced
- hemorrhage / hemorrhagic transformation in the brain ([2]; listed as NelonemdazK): prevented hemorrhage
- hemorrhage / hemorrhagic transformation in the brain [2]: prevents hemorrhagic transformation
- levels of hemoglobin in the ischemic brain region [3]: significantly reduced
- hemorrhage / hemorrhagic transformation in the ischemic brain region ([3]; potassium salt, 10 mg/kg): significantly reduced; also recorded: prevents hemorrhagic transformation
- ratio of mRS 0 ([4]; 1 week, high dose (5,250 mg) (placebo 2.04%, p=0.01)): 16.67%
- ratio of mRS 0 ([4]; 1 week, low dose (2,750 mg) (placebo 2.04%, p=0.04)): 12.96%
- ratio of mRS 0 ([4]; 4 weeks, high dose (5,250 mg) (placebo 6.12%, p=0.007)): 26.67%
- ratio of mRS 0 ([4]; 4 weeks, low dose (2,750 mg) (placebo 6.12%, p=0.04)): 20%
- ratio of mRS 0 ([4]; 12 weeks, high dose (5,250 mg) (placebo 8.16%, p=0.004)): 31.25%
- ratio of patients with Barthel Index score higher than 90 ([4]; 12 weeks, high dose (placebo 41.86%, p<0.05)): 64.44%
- ratio of mRS 0 ([4]; 12 weeks, low dose (2,750 mg) (placebo 8.16%, p=0.03)): 23.64%
- ratio of patients with Barthel Index score higher than 90 ([4]; 12 weeks, low dose (placebo 41.86%)): 54.72%
- drug-related adverse events ([4]; IV up to 5,250 mg for 5 days, 12 weeks follow-up): no drug-related adverse events
- ratio of mRS 0-2 or 0 ([4]; high dose (5,250 mg, N=48), over 12 weeks): further increased; also recorded: increases
- ratio of mRS 0-2 or 0 ([4]; low dose (2,750 mg, N=55), over 12 weeks): further increased; also recorded: increases
- occurrence of adverse events and serious adverse events vs placebo ([4]; over 12 weeks): no difference
- mortality rate ([4]; over 12 weeks, high dose group (N=67) (placebo 8.57%)): 4.48%
- mortality rate ([4]; over 12 weeks, low dose group (N=71) (placebo 8.57%)): 4.23%

Source: patent publication US12433861B2, “Compositions and methods for treating reperfusion injury or hemorrhage after recanalization therapy” (GNT Pharma Co., Ltd., priority 2020, dated 2025)
